This note sets out measurements from patent US10544134B2, “4-substituted coumarin derivatives and preparation methods and uses thereof” (SI CHUAN UNIVERSITY, priority 2015, dated 2020).

Common to all, as to assay: Tumor cell proliferation inhibitory activity test in vitro (MTT)
Assay [1] has as its system non-small cell lung cancer cell line NCI-H460. Type of assay: cell-based, human. Conditions: read-out: IC50 of compounds for tumor cells, Activity, H460. From the text: (§1) Human non-small cell lung cancer cell line NCI-H460, human small cell lung cancer cell line NCI-H446, human hepatocellular carcinoma cell strain HepG2, human colon carcinoma cell strain HCT116, human prostate cancer PC-3, human melanoma A375, colon carcinoma cell HCT-8, breast cancer cell MCF-7, ovarian cancer cell A2780s, drug-resistant ovarian cancer cell A2780/T, drug-resistant colon cancer cell HCT-8/T and doxorubicin-resistant breast cancer cell MCF-7/ADR are obtained from American Type Culture Collection (ATCC) and are cultured and preserved by the cell bank of State Key Laboratory of Biotherapy of Sichuan University. Above tumor cells are routinely cultured in DMEM culture medium containing 10% fetal bovine serum, 100 U·mL-1 penicillin and 100 mg·L−1 streptomycin, and in an incubator at 37° C. and with saturated humidity and 5% CO2 concentration.
(§2) Fill diluted cell suspension in the 96-well plate with 1000-10000 cells per well and incubate it in CO2 incubator overnight.
(§3) Replace with new medium containing various concentrations of compounds to be tested for the test group and replace with fresh medium with equal volume for the control group, each group is arranged with 5 parallel wells and incubated in an incubator at 37° C. and with 5% CO2 concentration.
(§4) Discard the supernatant after 72 hours, add 200 μL freshly prepared serum-free medium containing 0.2 mg/mL MTT into each well, continue to incubate at 37° C. for 1-4 hours, then stop incubation, carefully remove the culture supernatant in the wells and add 200 uL DMSO (dimethyl sulfoxide), oscillate with a miniature ultrasonic oscillator for 15-20 minutes to make the crystal fully dissolved and mixed. Determine OD values using a microplate reader at 570 nm with a reference wavelength of 450 nm.
(§5) Draw curves based on the growth inhibition rate for tumor cells of the same sample with different concentrations to get dose-response curve, so as to calculate IC50. Repeat each test for 3 times, measure IC50 (μM) or nanomolor concentration (nM) of compounds in different tumor cells.

Assay [2] deals with melanoma A375. Type of assay: cell-based, human. Conditions: read-out: IC50 of compounds for tumor cells, Activity, A375.
Excerpt: as §1, §2, §3, §4, §5

For assay [3], the system named is colon carcinoma cell HCT116. Type of assay: cell-based, human. To be noted: read-out: IC50 of compounds for tumor cells, Activity, HCT116.
Excerpt: as §1, §2, §3, §4, §5

For assay [4], the system named is hepatocellular carcinoma cell HEPG2. The format is cell-based, human. Conditions: read-out: IC50 of compounds for tumor cells, Activity, HEPG2.
Excerpt: as §1, §2, §3, §4, §5

Assay [5] has as its system prostate cancer PC-3. The format is cell-based, human. Conditions: 72 hours, read-out: IC50 of compounds for tumor cells, Activity, PC-3.
Excerpt: as §1, §2, §3, §4, §5

The test system of assay [6] is breast cancer cell MCF-7. Type of assay: cell-based. To be noted: read-out: IC50 of compounds for tumor cells, Activity, MCF-7.
Excerpt: as §1, §2, §3, §4, §5

Where [7] appears, read: Homo sapiens, NCI-H460, 72 hours.
Setting [8] is: Homo sapiens, HCT-116, 72 hours.

Read-outs that look alike come from different tables or passages of the source.

For `O=c1cc(-c2ccc(-c3ccc4c(c3)OCO4)s2)c2ccccc2o1` [COUM-31, 4-(5-(3,4-(methylenedioxy)benzene)thiophene-2-yl)-coumarin], the IC50 was greater than 5 µM in assay [1] (setting [7]); greater than 5 µM in assay [2] (Homo sapiens, A-375, 72 hours); greater than 5 µM in assay [3] (setting [8]); greater than 5 µM in assay [4] (Homo sapiens, HepG2, 72 hours); greater than 5 µM in assay [5] (Homo sapiens); greater than 5 µM in assay [6] (Homo sapiens, MCF7, 72 hours).
Turning to `COc1ccc2c(-c3ccc(-c4ccccc4OC)s3)cc(=O)oc2c1` [COUM-12, 4-(5-(2-methoxybenzene)thiophene-2-yl)-7-methoxyl-coumarin], the IC50 was greater than 5 µM in assay [1] (setting [7]); greater than 5 µM in assay [2] (Homo sapiens, A-375, 72 hours); greater than 5 µM in assay [3] (setting [8]); greater than 5 µM in assay [4] (Homo sapiens, HepG2, 72 hours); greater than 5 µM in assay [5] (Homo sapiens); greater than 5 µM in assay [6] (Homo sapiens, MCF7, 72 hours).
In the case of `COc1ccc2c(-c3ccc(-c4cccc(Cl)c4)s3)cc(=O)oc2c1` [COUM-35, 4-(5-(3-chlorobenzene)thiophene-2-yl)-7-methoxyl-coumarin], the IC50 in assay [1] (setting [7]) is greater than 5 µM; in assay [2] (Homo sapiens, A-375, 72 hours), greater than 5 µM; in assay [3] (setting [8]) it was greater than 5 µM; in assay [4] (Homo sapiens, HepG2, 72 hours), greater than 5 µM; in assay [5] (Homo sapiens), greater than 5 µM; in assay [6] (Homo sapiens, MCF7, 72 hours), greater than 5 µM.
Regarding “4-(N-methyl-N-(4-methoxy-3-(2-methylphenyl-methoxycarbonyl)-benzene)-amino) Coumarin [COUM-63]”, the IC50 in assay [1] (72 hours), in assay [2] (72 hours), in assay [3] (72 hours), in assay [4] (72 hours), in assay [5] and in assay [6] (72 hours) was 0.1 to 5 µM in each case.
Regarding `CCOc1cc(N(C)c2cc(=O)oc3ccccc23)ccc1OC` [COUM-58, 4-(N-methyl-N-(4-methoxy-3-ethoxy-benzene)-amino) Coumarin], the IC50 in assay [1] (72 hours), in assay [2] (72 hours), in assay [3] (72 hours), in assay [4] (72 hours), in assay [5] and in assay [6] (72 hours) was greater than 5 µM throughout.
Turning to `COc1ccc(N(C)c2cc(=O)oc3ccccc23)cc1NC(=O)CCC(=O)O` [COUM-98, 4-(N-methyl-N-(4-methoxy-3-(1-carboxylic acid-propanecarbonylamino-)phenyl)-amino) Coumarin], the IC50 in assay [1] (setting [7]) was 0.1 to 5 µM; in assay [2] (Homo sapiens, A-375, 72 hours) it was 0.1 to 5 µM; in assay [3] (setting [8]) it was 0.1 to 5 µM; in assay [4] (Homo sapiens, HepG2, 72 hours), 0.1 to 5 µM; in assay [5] (Homo sapiens) it was 0.1 to 5 µM; in assay [6] (Homo sapiens, MCF7, 72 hours) it was 0.1 to 5 µM.
For the molecule `COc1ccc(N(C)c2cc(=O)oc3ccccc23)cc1OS(=O)(=O)Cc1ccc(C)cc1` [COUM-55, 4-(N-methyl-N-(4-methoxy-3-(4-methylbenzene) methanesulfonate-benzene)-amino) Coumarin], the half-inhibitory concentration (IC50) in assay [1] (72 hours), in assay [2] (72 hours), in assay [3] (72 hours), in assay [4] (72 hours), in assay [5] and in assay [6] (72 hours) was 0.1 to 5 µM in each case.
For the molecule `COc1ccc2c(-c3ccc(-c4ccc(C)cc4)o3)cc(=O)oc2c1` [COUM-24, 4-(5-(4-methylbenzene)furan-2-yl)-7-methoxyl-coumarin], the IC50 is greater than 5 µM in assay [1] (setting [7]); greater than 5 µM in assay [2] (Homo sapiens, A-375, 72 hours); greater than 5 µM in assay [3] (setting [8]); greater than 5 µM in assay [4] (Homo sapiens, HepG2, 72 hours); greater than 5 µM in assay [5] (Homo sapiens); greater than 5 µM in assay [6] (Homo sapiens, MCF7, 72 hours).
On to `COc1ccc2c(c1)CCCN2c1cc(=O)oc2ccccc12` [COUM-36, 4-(6-methoxy-3,4-dihydroquinoline-1(2H)-yl) coumarin], for which the IC50 in assay [1] (setting [7]) was greater than 5 µM; in assay [2] (Homo sapiens, A-375, 72 hours) it was greater than 5 µM; in assay [3] (setting [8]), greater than 5 µM; in assay [4] (Homo sapiens, HepG2, 72 hours) it was greater than 5 µM; in assay [5] (Homo sapiens) it was greater than 5 µM; in assay [6] (Homo sapiens, MCF7, 72 hours), greater than 5 µM.
As to `COc1ccc(N(C)c2cc(=O)oc3ccccc23)cc1OCCN1CCCCC1` [COUM-51, 4-(N-methyl-N-(4-methoxy-3-(2-piperidinoethoxy)-benzene)-amino) Coumarin], the half-maximal inhibitory concentration (IC50) in assay [1] (72 hours), in assay [2] (72 hours), in assay [3] (72 hours), in assay [4] (72 hours), in assay [5] and in assay [6] (72 hours) was greater than 5 µM throughout.
Turning to `COc1ccc2c(N(C)c3cc(OC)c(OC)c(OC)c3)cc(=O)oc2c1` [COUM-44], the IC50 in assay [1] (setting [7]) lay within 0.01 to 0.1 µM; in assay [2] (Homo sapiens, A-375, 72 hours), 0.01 to 0.1 µM; in assay [3] (setting [8]), 0.01 to 0.1 µM; in assay [4] (Homo sapiens, HepG2, 72 hours), 0.01 to 0.1 µM; in assay [5] (Homo sapiens) it was 0.01 to 0.1 µM; in assay [6] (Homo sapiens, MCF7, 72 hours), 0.01 to 0.1 µM.
Take `COc1ccc2c(c1)CCCN2c1cc(=O)oc2cc(OC)ccc12` [COUM-38, 4-(6-methoxy-3,4-dihydroquinoline-1(211)-yl)-7 methoxycoumarin]: the 50% inhibitory concentration (IC50) in assay [1] (setting [7]) lay within 0.1 to 5 µM; in assay [2] (Homo sapiens, A-375, 72 hours), 0.1 to 5 µM; in assay [3] (setting [8]) it was 0.1 to 5 µM; in assay [4] (Homo sapiens, HepG2, 72 hours), 0.1 to 5 µM; in assay [5] (Homo sapiens) it was 0.1 to 5 µM; in assay [6] (Homo sapiens, MCF7, 72 hours), 0.1 to 5 µM.
Regarding “4-(N-methyl-N-(4-methoxy-3-(furan-2-yl-methoxycarbonyl)-benzene)-amino) Coumarin [COUM-61]”, the IC50 in assay [1] (72 hours), in assay [2] (72 hours), in assay [3] (72 hours), in assay [4] (72 hours), in assay [5] and in assay [6] (72 hours) was 0.1 to 5 µM in each case.
In the case of `COc1cccc(-c2ccc(-c3cc(=O)oc4cc(OC)ccc34)s2)c1` [COUM-33, 4-(5-(3-methoxybenzene)thiophene-2-yl)-7-methoxyl-coumarin], the IC50 was greater than 5 µM in assay [1] (setting [7]); greater than 5 µM in assay [2] (Homo sapiens, A-375, 72 hours); greater than 5 µM in assay [3] (setting [8]); greater than 5 µM in assay [4] (Homo sapiens, HepG2, 72 hours); greater than 5 µM in assay [5] (Homo sapiens); greater than 5 µM in assay [6] (Homo sapiens, MCF7, 72 hours).
As for `O=c1cc(-c2ccc(-c3ccccc3Cl)s2)c2ccccc2o1` [COUM-30, 4-(5-(2-chlorobenzene)thiophene-2-yl)-coumarin], the concentration for half-maximal inhibition (IC50) in assay [1] (setting [7]) is greater than 5 µM; in assay [2] (Homo sapiens, A-375, 72 hours) it was greater than 5 µM; in assay [3] (setting [8]), greater than 5 µM; in assay [4] (Homo sapiens, HepG2, 72 hours), greater than 5 µM; in assay [5] (Homo sapiens), greater than 5 µM; in assay [6] (Homo sapiens, MCF7, 72 hours), greater than 5 µM.
For the molecule `COc1cc(-c2ccc(-c3cc(=O)oc4ccccc34)o2)cc(OC)c1OC` [COUM-20, 4-(5-(3,4,5-trimethoxyphenyl)furan-2-yl)-coumarin], the half-maximal inhibitory concentration (IC50) is greater than 5 µM in assay [1] (setting [7]); greater than 5 µM in assay [2] (Homo sapiens, A-375, 72 hours); greater than 5 µM in assay [3] (setting [8]); greater than 5 µM in assay [4] (Homo sapiens, HepG2, 72 hours); greater than 5 µM in assay [5] (Homo sapiens); greater than 5 µM in assay [6] (Homo sapiens, MCF7, 72 hours).
In the case of `O=c1cc(-c2ccc(-c3ccccc3)o2)c2ccccc2o1` [COUM-19, 4-(5-phenylfuran-2-yl)-coumarin], the concentration for half-maximal inhibition (IC50) in assay [1] (setting [7]) is greater than 5 µM; in assay [2] (Homo sapiens, A-375, 72 hours), greater than 5 µM; in assay [3] (setting [8]) it was greater than 5 µM; in assay [4] (Homo sapiens, HepG2, 72 hours), greater than 5 µM; in assay [5] (Homo sapiens), greater than 5 µM; in assay [6] (Homo sapiens, MCF7, 72 hours), greater than 5 µM.
Regarding `COc1ccc(N(C)c2cc(=O)oc3ccccc23)cc1OCCN1CCSCC1` [COUM-50, 4-(N-methyl-N-(4-methoxy-3-(2-thiomorpholinoethoxy)-benzene)-amino) Coumarin], the half-maximal inhibitory concentration (IC50) in assay [1] (72 hours), in assay [2] (72 hours), in assay [3] (72 hours), in assay [4] (72 hours), in assay [5] and in assay [6] (72 hours) was 0.01 to 0.1 µM throughout.
In the case of “4-(N-methyl-N-(4-methoxy-3-(2-pyrrole ethoxy)-benzene)-amino) Coumarin [COUM-52]”, the half-inhibitory concentration (IC50) in assay [1] (72 hours), in assay [2] (72 hours), in assay [3] (72 hours), in assay [4] (72 hours), in assay [5] and in assay [6] (72 hours) was 0.1 to 5 µM throughout.
As to `COc1ccc2c(-c3ccc(-c4ccccc4Cl)s3)cc(=O)oc2c1` [COUM-34, 4-(5-(2-chlorobenzene)thiophene-2-yl)-7-methoxyl-coumarin], the IC50 in assay [1] (setting [7]) is greater than 5 µM; in assay [2] (Homo sapiens, A-375, 72 hours), greater than 5 µM; in assay [3] (setting [8]), greater than 5 µM; in assay [4] (Homo sapiens, HepG2, 72 hours), greater than 5 µM; in assay [5] (Homo sapiens) it was greater than 5 µM; in assay [6] (Homo sapiens, MCF7, 72 hours), greater than 5 µM.

As usually defined, the IC50 is the concentration needed to halve the response being measured.
